Here are results for 14 molecules from patent US5206233A, “Substituted thiazepines as central nervous system agents” (Warner-Lambert Company, priority 1991, dated 1993).

One may read the IC50 as the concentration that inhibits the measured activity by half. In general, ED50 refers to the midpoint of the dose-response relation. High values mean a need for a large dose, low ones an effect at a small dose.

The target of test [1] is sigma receptor. The experiment in a line: 3-PPP binding (inhibition of (+)-[3H]-3-PPP, a sigma ligand, binding). The following applies: inhibition of (+)-[3H]-3-PPP binding, method of Largent et al.
The test system of test [2] is locomotor activity in mice. The test can be described thus: inhibition of locomotor activity in mice. In kind it is in vivo. The note with it: Mus musculus, IP. Here is the method: (§1) The compounds of Formula I are valuable sigma ligands. […] Additionally, the compounds of Formula I were tested for their ability to inhibit locomotor activity in mice according to the assay described by McLean, J. R., et al, Pharmacology, Biochemistry and Behavior 8:97-99 (1978); for their ability to inhibit contractions of electrically stimulated guinea pig ileum according to the method of Campbell, B. G., et al, Journal of Neuroscience 9 3380-3384 (1989) and Bass, P., et al, Journal of Pharmacology and Experimental Therapeutics 186:183-198 (1973). These tests further support the antipsychotic activity of the compounds of Formula I. The above test methods are incorporated herein by reference. The data in the table show the activity of representative compounds of Formula I.

For test [3], the system named is guinea pig ileum. The test can be described thus: inhibition of contraction of electrically stimulated guinea pig ileum. The note with it: Cavia porcellus, read-out: Inhibition of Contraction of Electrical Stimulation Guinea Pig Ileum IC50. The procedure: as §1
In test [4] the test system is sigma receptor. The following applies: known antipsychotic agents; literature; cited from earlier work.

Where a name gives a salt, the structure may show the parent alone.

Take `COc1ccc(C2CCN(C)CCS2)cc1` (stereo not drawn) [Example 2, Hexahydro-7-(4-methoxyphenyl)-4-methyl-1,4-thiazepine, hydrochloride]: in test [1], the IC50 amounted to 16.5 nM.

On to `CCN1CCSC(c2ccc(OC)cc2)CC1` (stereo not drawn) [Example 3, Hexahydro-7-(4-methoxyphenyl)-4-ethyl-1,4-thiazepine], for which the IC50 in test [1] amounted to 6.22 nM.

In test [1], `COc1ccc(C2CCN(C(C)C)CCS2)cc1` (stereo not drawn) [Example 4, Hexahydro-7-(4-methoxyphenyl)-4-isopropyl-1,4-thiazepine, hydrochloride] had an IC50 of 1.62 nM.

Turning to `CN1CCSC(c2ccc(Cl)cc2)CC1` (stereo not drawn) [Example 6, Hexahydro-7-(4-chlorophenyl)-4-methyl-1,4-thiazepine, hydrochloride], the IC50 in test [1] was 121 nM.

With `CCCN1CCSC(c2ccc(Cl)cc2)CC1` (stereo not drawn) [Example 10, Hexahydro-7-(4-chlorophenyl)-4-propyl-1,4-thiazepine], the IC50 in test [1] is 21.3 nM.

`COc1ccc(C2CCN(CCCCc3ccncc3)CCS2)cc1` (stereo not drawn) [Example 12, Hexahydro-7-(4-methoxyphenyl)-4-[4-(4-pyridinyl)butyl]-1,4-thiazepine]: the IC50 turned out to be 1.32 nM in test [1] and 7300 nM in test [3]. The same molecule came in with an ED50 in test [2] of 13.9 mg/kg.

For the molecule `COc1ccc(C2CCN(CCCC(=O)c3cccnc3)CCS2)cc1` (stereo not drawn) [Example 13, 1-(3-Pyridinyl)-7-(4-methoxyphenyl)-4-(tetrahydro-1,4-thiazepin-4(2H)-yl)-1-butanone, dihydrochloride], the IC50 in test [1] amounted to 9.2 nM.

For the molecule `Cl.c1ccc(C2CCN(CCCCc3ccncc3)CCS2)cc1` (stereo not drawn) [Example 14, Hexahydro-7-(phenyl)-4-[4-(4-pyridinyl)butyl]-1,4-thiazepine, hydrochloride], the values for the concentration for half-maximal inhibition (IC50) in test [1] and in test [3] were 6.39 nM and 13100 nM, respectively. In test [2], this molecule displayed an ED50 of 13.1 mg/kg.

In the case of `c1ccc(C2CCN(CCCCc3cccnc3)CCS2)cc1` (stereo not drawn) [Example 15, Hexahydro-7-(phenyl)-4-[4-(3-pyridinyl)butyl]-1,4-thiazepine], the IC50 in test [1] worked out at 2.5 nM; in test [3] it was 4000 nM. In test [2], this molecule yielded an ED50 of 17.9 mg/kg.

`Clc1ccc(C2CCN(CCCCc3ccncc3)CCS2)cc1` (stereo not drawn) [Example 16, Hexahydro-7-(4-chlorophenyl)-4-[4-(4-pyridinyl)butyl]-1,4-thiazepine] registered an IC50 in test [1] of 2.62 nM. In test [2], this molecule displayed an ED50 of 19 mg/kg.

`O=C(CCCN1CCC(O)(c2ccc(Cl)cc2)CC1)c1ccc(F)cc1` [haloperidol]: the “interaction with the sigma receptor (in words)” value (“interaction” below) in test [4] was “interact with the sigma receptor”.

For the molecule `CCN1CCC[C@H]1CNC(=O)c1c(OC)ccc(Br)c1OC` [remoxapride], the “interaction” value in test [4] is “interact with the sigma receptor”.

On to `C[C@@H]1CN(CCCn2c3ccccc3c3ccccc32)C[C@H](C)N1` [rimcazole], for which the “interaction” value in test [4] is listed as “interact with the sigma receptor”.

Take `O=C1CC2(CCCC2)CC(=O)N1CCCCN1CCN(c2nsc3ccccc23)CC1` [tiospirone]: the “interaction” value in test [4] is listed as “interact with the sigma receptor”.
